Data published in ChEMBL document CHEMBL5385858, “Identification of novel Pyrrolo[2,3-d]Pyrimidine-based KRAS G12C inhibitors with anticancer effects” (Eur J Med Chem, 2023).
Calls of active or inactive are those of the source. The rule behind the calls is not given here.

Tests used:
[1] = test system: GTPase KRas (Homo sapiens), P01116 [G12C]; assay: Inhibition of KRAS G12C mutant RBD in human NCI-H358 cells incubated for 24 hrs in presence of GTP by pull-down assay; format: cell-based; conditions: dose <= 1.0 µM
[2] = test system: GTPase KRas (Homo sapiens), P01116 [G12C]; assay: Inhibition of KRAS G12C mutant RBD in human NCI-H358 cells upto 1 uM in presence of GTP by pull-down assay; format: cell-based; conditions: time 24.0 hrs, TDE = time-dependent effect
[3] = test system: GTPase KRas (Homo sapiens), P01116 [G12C]; assay: Inhibition of KRAS G12C mutant in human NCI-H358 cells assessed as decrease in ERK phosphorylation upto 5 uM by Western blot analysis; format: cell-based; conditions: time 2-72 hrs, TDE = time-dependent effect
[4] = test system: GTPase KRas (Homo sapiens), P01116 [G12C]; assay: Inhibition of KRAS G12C mutant in human NCI-H358 cells assessed as decrease in AKT phosphorylation incubated for 2 to 72 hrs by Western blot analysis; format: cell-based; conditions: time 2-72 hrs
MIA PaCa-2 = assay: Antiproliferative activity against human MIA PaCa-2 cells harboring KRAS G12C mutant assessed as inhibition of cell proliferation incubated for 3 days by CCK8 assay; format: functional, cell-based; conditions: MIA PaCa-2, 72 h
NCI-H1975 = assay: Antiproliferative activity against human NCI-H1975 cells harboring wild-type KRAS assessed as inhibition of cell proliferation incubated for 3 days by CCK8 assay; format: functional, cell-based; conditions: NCI-H1975, 72 h
A549 = assay: Antiproliferative activity against human A549 cells harboring KRAS G12S mutant assessed as inhibition of cell proliferation incubated for 3 days by CCK8 assay; format: functional, cell-based; conditions: A549, 72 h
NCI-H358 [5] = assay: Antiproliferative activity against human NCI-H358 cells harboring siKRAS assessed as inhibition of cell proliferation; format: functional, cell-based
NCI-H358 [6] = assay: Induction of apoptosis in human NCI-H358 cells assessed as early apoptotic cells at 0.1 uM incubated for 24 hrs by Annexin V-FITC/PI staining based flow cytometry (reference value: 5.4 %); format: functional
NCI-H358 [7] = assay: Induction of apoptosis in human NCI-H358 cells assessed as late apoptotic cells at 0.1 uM incubated for 24 hrs by Annexin V-FITC/PI staining based flow cytometry (reference value: 1.32 %); format: functional
NCI-H358 [8] = assay: Induction of apoptosis in human NCI-H358 cells assessed as necrotic cells at 0.1 uM incubated for 24 hrs by Annexin V-FITC/PI staining based flow cytometry (reference value: 1.88 %); format: functional
NCI-H358 [9] = assay: Induction of apoptosis in human NCI-H358 cells assessed as viable cells at 0.3 uM incubated for 24 hrs by Annexin V-FITC/PI staining based flow cytometry (reference value: 91.4 %); format: functional; conditions: read-out: Activity
NCI-H358 [10] = assay: Induction of apoptosis in human NCI-H358 cells assessed as early apoptotic cells at 0.3 uM incubated for 24 hrs by Annexin V-FITC/PI staining based flow cytometry (reference value: 5.4 %); format: functional
NCI-H358 [11] = assay: Induction of apoptosis in human NCI-H358 cells assessed as necrotic cells at 0.3 uM incubated for 24 hrs by Annexin V-FITC/PI staining based flow cytometry (reference value: 1.88 %); format: functional
NCI-H358 [12] = assay: Induction of apoptosis in human NCI-H358 cells assessed as early apoptotic cells at 0.5 uM incubated for 24 hrs by Annexin V-FITC/PI staining based flow cytometry (reference value: 5.4 %); format: functional
NCI-H358 [13] = assay: Induction of apoptosis in human NCI-H358 cells assessed as necrotic cells at 0.5 uM incubated for 24 hrs by Annexin V-FITC/PI staining based flow cytometry (reference value: 1.88 %); format: functional
NCI-H358 [14] = assay: Induction of apoptosis in human NCI-H358 cells assessed as viable cells at 1 uM incubated for 24 hrs by Annexin V-FITC/PI staining based flow cytometry (reference value: 91.4 %); format: functional; conditions: read-out: Activity
NCI-H358 [15] = assay: Inhibition of cell invasion in human NCI-H358 cells measured for 24 hrs by transwell assay; format: functional, cell-based
[16] = AUC (0 to infinity) in ICR mouse at 3 mg/kg, iv measured for 24 hrs by LC-MS/MS analysis; format: ADME, organism-based; set-up: dose 3 mg/kg, time 24 hrs, route iv; conditions: in vivo
[17] = C0 in ICR mouse at 3 mg/kg, iv measured for 24 hrs by LC-MS/MS analysis; format: ADME, organism-based; conditions: in vivo
[18] = Half life in ICR mouse at 3 mg/kg, iv measured for 24 hrs by LC-MS/MS analysis; format: ADME, organism-based; conditions: in vivo
[19] = Volume of distribution at steady state in ICR mouse at 3 mg/kg, iv measured for 24 hrs by LC-MS/MS analysis; format: ADME, organism-based; conditions: in vivo, read-out: Vdss
[20] = Clearance in ICR mouse at 3 mg/kg, iv measured for 24 hrs by LC-MS/MS analysis; format: ADME, organism-based; conditions: in vivo
[21] = AUC (0 to t) in ICR mouse at 30 mg/kg, po measured for 24 hrs by LC-MS/MS analysis; format: ADME, organism-based; set-up: dose 30 mg/kg, time 24 hrs, route po; conditions: in vivo
[22] = Half life in ICR mouse at 30 mg/kg, po measured for 24 hrs by LC-MS/MS analysis; format: ADME, organism-based; conditions: in vivo
NCI-H358 [23] = assay: Antitumor activity in human NCI-H358 cells xenografted in BALB/c-nu/nu mouse assessed as tumor regression at 30 mg/kg, po qd treated for 20 days; format: functional, organism-based; conditions: time 20.0 day
NCI-H358 [24] = assay: Antitumor activity in human NCI-H358 cells xenografted in BALB/c-nu/nu mouse assessed as tumor growth inhibition at 30 mg/kg, po qd treated for 20 days relative to control; format: functional; conditions: NCI-H358, 480 h, time 20 day, read-out: TGI
[25] = Toxicity in BALB/c-nu/nu mouse xenografted with human NCI-H358 cells assessed as body weight loss at 10 to 30 mg/kg, po qd treated for 20 days; format: organism-based; conditions: in vivo, 480 h, dose 10-30 mg/kg, time 20 day
[26] = Toxicity in BALB/c-nu/nu mouse xenografted with human NCI-H358 cells assessed as morphological damage in heart at 10 to 30 mg/kg, po qd treated for 20 days; format: organism-based; conditions: in vivo, 480 h, dose 10-30 mg/kg, time 20 day
NCI-H358 [27] = assay: In vivo inhibition of KRAS G12C mutant in human NCI-H358 cells xenografted in BALB/c-nu/nu mouse assessed as decrease in ERK phosphorylation at 10 to 30 mg/kg, po qd treated for 20 days by Western blot analysis; format: functional, organism-based; conditions: dose 10-30 mg/kg, time 20.0 day
[28] = Toxicity in BALB/c-nu/nu mouse xenografted with human NCI-H358 cells assessed as histological change in heart at 10 to 30 mg/kg, po qd treated for 20 days by H and E staining based analysis; format: organism-based; conditions: in vivo, 480 h, dose 10-30 mg/kg, time 20 day
[29] = Toxicity in BALB/c-nu/nu mouse xenografted with human NCI-H358 cells assessed as histological change in liver at 10 to 30 mg/kg, po qd treated for 20 days by H and E staining based analysis; format: organism-based; conditions: in vivo, 480 h, dose 10-30 mg/kg, time 20 day
[30] = Toxicity in BALB/c-nu/nu mouse xenografted with human NCI-H358 cells assessed as histological change in lung at 10 to 30 mg/kg, po qd treated for 20 days by H and E staining based analysis; format: organism-based; conditions: in vivo, 480 h, dose 10-30 mg/kg, time 20 day
[31] = Toxicity in BALB/c-nu/nu mouse xenografted with human NCI-H358 cells assessed as histological change in kidney at 10 to 30 mg/kg, po qd treated for 20 days by H and E staining based analysis; format: organism-based; conditions: in vivo, 480 h, dose 10-30 mg/kg, time 20 day

Chain of GTPase KRas (Homo sapiens), P01116 [G12C] (P01116 whole entry G12C): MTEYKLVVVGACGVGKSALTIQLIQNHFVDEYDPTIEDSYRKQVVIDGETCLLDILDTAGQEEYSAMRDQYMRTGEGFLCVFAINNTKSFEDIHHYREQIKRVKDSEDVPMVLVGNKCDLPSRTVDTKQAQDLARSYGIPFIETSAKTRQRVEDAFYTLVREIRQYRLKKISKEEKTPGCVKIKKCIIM

- inhibition [1]: Dose-Dependent Effect
- inhibition [2]: Tde
- inhibition [3]: Tde
- inhibition [4]: Dose-Dependent Effect
- IC50 (MIA PaCa-2): 0.87 µM
- IC50 (NCI-H1975): 7.91 µM
- IC50 (A549): 29.9 µM
- AUC(0-inf) [16]: 804 ng·h/mL
- C0 at 24 h [17]: 1960 ng/mL
- half-life [18]: 0.93 h
- Vd [19]: 4.98 L/kg
- clearance [20]: 62.3 mL/min/kg
- AUC(0-t) at 24 h [21]: 600 ng·h/mL
- half-life [22]: 4.79 h
Compound: C=CC(=O)N1CCN(c2nc(OC[C@@]34CCCN3C[C@H](F)C4)nc3c2cc(-c2cccc4cccc(C)c24)n3C)C[C@@H]1CC#N
- inhibition (NCI-H358 [5]): Active
- Activity (NCI-H358 [6]): 10.5%
- Activity (NCI-H358 [7]): 3.71%
- Activity (NCI-H358 [8]): 1.17%
- viability at 0.3 µM (NCI-H358 [9]): 83.2%
- Activity (NCI-H358 [10]): 11.8%
- Activity (NCI-H358 [11]): 1.06%
- Activity (NCI-H358 [12]): 14%
- Activity (NCI-H358 [13]): 0.8%
- viability at 1 µM (NCI-H358 [14]): 71.2%
- Activity (NCI-H358 [15]): Dose-Dependent Effect
- Activity (NCI-H358 [23]): Active
- inhibition in vivo at 30 mg/kg (NCI-H358 [24]): 84%
- Activity [25]: Non-Toxic
- Activity [26]: Non-Toxic
- inhibition (NCI-H358 [27]): Active
- Activity [28]: Non-Toxic
- Activity [29]: Non-Toxic
- Activity [30]: Non-Toxic
- Activity [31]: Non-Toxic
